Legend:
human PTPN2 [1] = target: T1, human PTPN2 (Homo sapiens, UniProt P17706); test: Phosphatase activity assay using DiFMUP as substrate (PTPN2 BCHEM DIFMUP); type: biochemical; design: purchased MilliporeSigma SRP5075; settings: human PTPN2 0.15 nM, 10 mM DTT, room temperature
T1 sequence (P17706 1-415): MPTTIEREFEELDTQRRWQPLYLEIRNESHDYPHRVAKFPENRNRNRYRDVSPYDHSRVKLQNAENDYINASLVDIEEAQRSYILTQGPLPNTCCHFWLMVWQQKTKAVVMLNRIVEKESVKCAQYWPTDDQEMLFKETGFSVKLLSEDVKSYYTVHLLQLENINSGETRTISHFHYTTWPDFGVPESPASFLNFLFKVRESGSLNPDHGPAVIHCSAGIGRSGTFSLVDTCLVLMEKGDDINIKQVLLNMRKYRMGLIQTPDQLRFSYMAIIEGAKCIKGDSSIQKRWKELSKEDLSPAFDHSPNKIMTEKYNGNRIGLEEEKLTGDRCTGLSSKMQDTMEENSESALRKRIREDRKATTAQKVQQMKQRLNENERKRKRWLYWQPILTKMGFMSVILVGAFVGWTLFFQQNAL
Protocol: The PTPN2 biochemical assay was performed as follows, a 5× stock solution of human PTPN2 (SRP5075, MilliporeSigma, Burlington, MA) and a 1.25× stock solution of DiFMUP (D6567, ThermoFisher Scientific, Waltham, MA), were prepared in 1× reaction buffer consisting of 50 mM HEPES, pH 7.4, 1 mM EDTA, 150 mM NaCl, 0.2 mg/mL BSA, 100 U/mL catalase and 10 mM DTT. […] of the DiFMUP substrate solution, for a final concentration of […] DiFMUP substrate, was added to a Corning 3574 384-well, white, non-binding surface microtiter plate containing […] of serially diluted test compounds prepared in DMSO. The reactions were started with the addition of […] of the enzyme solution, for a final PTPN2 concentration of 0.15 nM, and monitored every 105 seconds for 60 minutes at λEX 360/λEM 460 in a BioTek Synergy HTX plate reader (Agilent Technologies, Santa Clara, CA) at room temperature. The initial linear portions of the progress curves were fit according to a linear equation to yield the slopes and converted to % inhibition based on a value of 100% activity for the no inhibitor treated control. IC50 values of each compound were obtained by fitting the % inhibition-compound concentration curves using Dotmatics software (Dotmatics, Bishops Stortford, Hertfordshire, England).
(§1) For IC50 data, High DDT concentration and/or DiFMUP substrate assays were used; a skilled artisan may use either assay.

[2] = tested on: phosphorylated STAT1 in B16-F10 cells; test: Phospho-STAT1 (Tyr701) HTRF assay in B16-F10 cells with IFN-gamma; type: cell-based; settings: mouse IFN-gamma 100 ng/mL, 1 hour, read-out: pSTAT1 HTRF B16 EC50
Protocol: B16-F10 cells (ATCC, Manassas, VA, #CRL-6475) were cultured in DMEM growth medium (ThermoFisher Scientific, Waltham, MA, #11995-040) supplemented with 10% heat inactivated FBS (ThermoFisher Scientific, #16140-071) and 1% pen/strep (ThermoFisher Scientific, #15140-122). The cells were seeded into a white opaque 384-well tissue culture treated microplate (PerkinElmer, Waltham, MA, #6007688) at a density of 10,000 cells/well in 20 uL total volume and incubated overnight at 37 C and 5% CO2. 30 nL of compounds dissolved in DMSO were then transferred from a source plate into target wells with the Echo650 acoustic liquid handler (Beckman Coulter, Indianapolis, IN). Negative control wells received 30 nL of DMSO only (0.15% final concentration). Plates were returned to the incubator for 1 hour and then cells treated with either 5 uL of growth medium or 5 uL of growth medium containing 500 ng/ml of recombinant mouse IFN-gamma protein (R&D Systems, Minneapolis, MN, #485-MI/CF, 100 ng/mL final concentration) using the Assist automated pipetting platform (INTEGRA Biosciences, Hudson, NH). Plates were incubated at 37 C for 1 hour and assayed for phosphorylated STAT1 protein levels with the phospho-STAT1 (Tyr701) HTRF kit (Cisbio, Bedford, MA, #63ADK026PEH) according to manufacturer's instructions. HTRF signal intensity was collected with the EnVision 2105 plate reader (PerkinElmer) 24 hours later and analyzed with the Dotmatics software platform to calculate compound IC50 values.

B16-F10 cells = test: Cell proliferation assay in B16-F10 cells with IFN-gamma (CellTiter-Glo); type: cell-based; settings: 120 h, mouse IFN-gamma 10 ng/mL, read-out: PTPN2 Prolif 5d B16F10 EC50
Protocol: B16-F10 cells (ATCC, Manassas, VA, #CRL-6475) were cultured in DMEM growth medium (ThermoFisher Scientific, Waltham, MA, #11995-040) supplemented with 10% heat inactivated FBS (ThermoFisher Scientific, #16140-071) and 1% pen/strep (ThermoFisher Scientific, #15140-122). The cells were seeded into two white opaque 384-well tissue culture treated microplates (PerkinElmer, Waltham, MA, #6007688) at a density of 100 cells/well in 20 uL total volume and incubated overnight at 37 C and 5% CO2. 30 nL of compounds dissolved in DMSO were then transferred from a source plate into target wells with the Echo650 acoustic liquid handler (Beckman Coulter, Indianapolis, IN). Negative control wells received 30 nL of DMSO only (0.15% final concentration). Plates were returned to the incubator for 1 hour and then cells treated with either 5 uL of growth medium or 5 uL of growth medium containing 50 ng/ml of recombinant mouse IFN-gamma protein (R&D Systems, Minneapolis, MN, #485-MI/CF, 10 ng/mL final concentration) using the Assist automated pipetting platform (INTEGRA Biosciences, Hudson, NH). Plates were incubated at 37C for 4 days and cell proliferation assayed with the CellTiter-Glo reagent (Promega, Madison, WI, #G7573, 25 uL per well). […] Off-target compound mediated cytotoxicity was identified by checking for growth inhibition in the absence of IFNg.

human PTPN2 [3] = target: T1, human PTPN2; test: PTPN2 BCHEM (PhosphoSens assay, substrate AQT0264); type: biochemical; settings: PhosphoSens substrate AQT0264 20 μM, PTPN2 150 pM, room temperature
Protocol: A PhosphoSens® kinase assay was performed as described by the vendor (AssayQuant Technologies, Marlborough, MA). Briefly, 1000× solutions of compounds were prepared in DMSO via serial dilution of the 10 mM DMSO stocks using 3-fold intervals in a 384-well reagent plate. 50 nL of the compound dilution series was then added to the corresponding wells of a 384-well assay plate. 40 mL of 1.25× substrate (AQT0264) in 1× assay buffer (50 mM HEPES pH 7.5, 500 μM EGTA, […] MgCl2, 0.01% Brij-35, 1% Glycerol, 1 mM DTT, and 0.2 mg/mL BSA) was transferred to each well of the assay plate to achieve a final substrate concentration of 20 μM. Finally, […] of 5× PTPN2 enzyme stock was added to each well of the assay plate for a final enzyme concentration of 150 pM. Reaction progress curves were collected by sampling fluorescence intensity at the excitation wavelength 360 nm (λex360) and emission wavelength 480 nm (λem480) every 71 seconds for one hour using a Synergy H4 plate reader (BioTek Instruments/Agilent Technologies, Winooski, VT) at room temperature.
as §1

Row | IC50 (human PTPN2 [1]) | EC50 [2] | EC50 (B16-F10 cells) | IC50 (human PTPN2 [3]) | Structure (SMILES)
1 | 720 nM | > 15000 nM | > 15000 nM | 940 nM | Cc1ccc(-c2csc(N(C)Cc3cc(O)c(N4CC(=O)NS4(=O)=O)c(F)c3)n2)c(C)c1 [EXAMPLE 1, 5-(4-(((4-(2,4-dimethylphenyl)thiazol-2-yl)(methyl)amino)methyl)-2-fluoro-6-hydroxyphenyl)-1,2,5-thiadiazolidin-3-one 1,1-dioxide]
2 | 20 nM | > 15000 nM | > 15000 nM | – | O=C1CN(c2c(O)cc(CNc3cc[nH]n3)cc2F)S(=O)(=O)N1 [EXAMPLE 2, 5-(4-(((1H-pyrazol-3-yl)amino)methyl)-2-fluoro-6-hydroxyphenyl)-1,2,5-thiadiazolidin-3-one 1,1-dioxide]
3 | 20 nM | 30 nM | 1120 nM | – | O=C1CN(c2c(O)cc(CNc3ccon3)cc2F)S(=O)(=O)N1 [EXAMPLE 3, 5-(2-fluoro-6-hydroxy-4-((isoxazol-3-ylamino)methyl)phenyl)-1,2,5-thiadiazolidin-3-one 1,1-dioxide]
4 | 30 nM | 350 nM | 1030 nM | 20 nM | Cc1cc(NCc2cc(O)c(N3CC(=O)NS3(=O)=O)c(F)c2)no1 [EXAMPLE 4, 5-(2-fluoro-6-hydroxy-4-(((5-methylisoxazol-3-yl)amino)methyl)phenyl)-1,2,5-thiadiazolidin-3-one 1,1-dioxide]
5 | 40 nM | 930 nM | 1690 nM | – | O=C1CN(c2c(O)cc(CNc3nc[nH]n3)cc2F)S(=O)(=O)N1 [EXAMPLE 5, 5-(4-(((1H-1,2,4-triazol-3-yl)amino)methyl)-2-fluoro-6-hydroxyphenyl)-1,2,5-thiadiazolidin-3-one 1,1-dioxide]
6 | 10 nM | 6850 nM | 820 nM | – | Cn1ccc(NCc2cc(O)c(N3CC(=O)NS3(=O)=O)c(F)c2)n1 [EXAMPLE 6, 5-(2-fluoro-6-hydroxy-4-(((1-methyl-1H-pyrazol-3-yl)amino)methyl)phenyl)-1,2,5-thiadiazolidin-3-one 1,1-dioxide]
7 | 10 nM | 150 nM | 460 nM | – | O=C1CN(c2c(O)cc(CNc3nncs3)cc2F)S(=O)(=O)N1 [EXAMPLE 7, 5-(4-(((1,3,4-thiadiazol-2-yl)amino)methyl)-2-fluoro-6-hydroxyphenyl)-1,2,5-thiadiazolidin-3-one 1,1-dioxide]
8 | 160 nM | 4650 nM | 5900 nM | – | Cc1cnc(NCc2cc(O)c(N3CC(=O)NS3(=O)=O)c(F)c2)[nH]1 [EXAMPLE 8, 5-(2-fluoro-6-hydroxy-4-(((5-methyl-1H-imidazol-2-yl)amino)methyl)phenyl)-1,2,5-thiadiazolidin-3-one 1,1-dioxide]
9 | 3 nM | 1430 nM | 2300 nM | – | O=C1CN(c2c(O)cc(CNc3nccs3)cc2F)S(=O)(=O)N1 [EXAMPLE 9, 5-(2-fluoro-6-hydroxy-4-((thiazol-2-ylamino)methyl)phenyl)-1,2,5-thiadiazolidin-3-one 1,1-dioxide]
10 | 6 nM | 90 nM | 180 nM | – | O=C1CN(c2c(O)cc(CNc3ncc[nH]3)cc2F)S(=O)(=O)N1 [EXAMPLE 10, 5-(4-(((1H-imidazol-2-yl)amino)methyl)-2-fluoro-6-hydroxyphenyl)-1,2,5-thiadiazolidin-3-one 1,1-dioxide]
11 | 10 nM | 210 nM | 160 nM | – | Cn1ccnc1NCc1cc(O)c(N2CC(=O)NS2(=O)=O)c(F)c1 [EXAMPLE 11, 5-(2-fluoro-6-hydroxy-4-(((1-methyl-1H-imidazol-2-yl)amino)methyl)phenyl)-1,2,5-thiadiazolidin-3-one 1,1-dioxide]
12 | 10 nM | 230 nM | 560 nM | – | Cc1nnc(NCc2cc(O)c(N3CC(=O)NS3(=O)=O)c(F)c2)s1 [EXAMPLE 12, 5-(2-fluoro-6-hydroxy-4-(((5-methyl-1,3,4-thiadiazol-2-yl)amino)methyl)phenyl)-1,2,5-thiadiazolidin-3-one 1,1-dioxide]
13 | 10 nM | 230 nM | 1870 nM | – | Cc1csc(NCc2cc(O)c(N3CC(=O)NS3(=O)=O)c(F)c2)n1 [EXAMPLE 13, 5-(2-fluoro-6-hydroxy-4-(((4-methylthiazol-2-yl)amino)methyl)phenyl)-1,2,5-thiadiazolidin-3-one 1,1-dioxide]
14 | 20 nM | 690 nM | 2570 nM | – | Cc1cc(NCc2cc(O)c(N3CC(=O)NS3(=O)=O)c(F)c2)sn1 [EXAMPLE 14, 5-(2-fluoro-6-hydroxy-4-(((3-methylisothiazol-5-yl)amino)methyl)phenyl)-1,2,5-thiadiazolidin-3-one 1,1-dioxide]
15 | 4 nM | 630 nM | 380 nM | – | Cc1cc(NCc2cc(O)c(N3CC(=O)NS3(=O)=O)c(F)c2)[nH]n1 [EXAMPLE 15, 5-(2-fluoro-6-hydroxy-4-(((3-methyl-1H-pyrazol-5-yl)amino)methyl)phenyl)-1,2,5-thiadiazolidin-3-one 1,1-dioxide]

From patent publication US20240238258A1, “INHIBITORS OF PROTEIN TYROSINE PHOSPHATASE, COMPOSITIONS, AND METHODS OF USE” (BRISTOL-MYERS SQUIBB COMPANY, priority 2022, published 2024)
